From ChEMBL document CHEMBL1201862, “PubChem BioAssay data set” (2004)
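Test compounds were applied to cells in 96-well plates for 48 hours at 5 doses. GI50 is the concentration that inhibits growth by half.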 Active and inactive are the calls of the source. Cut-off read from the data, not from the text of the source: active = GI50 up to about 1.1 µM and inactive = higher.

Columns and labels:
Test in all cases: inhibition of tumour cell growth, NCI panel, 48 h
ACHN = test system: ACHN
COLO 205 = test system: COLO 205
KM12 = test system: KM12
CAKI-1 = test system: CAKI-1
OVCAR-4 = test system: OVCAR-4
SNB-75 = test system: SNB-75
SF-539 = test system: SF-539
HL-60 = test system: HL-60
UACC-257 = test system: UACC-257
RXF 393 = test system: RXF 393
NCI-H226 = test system: NCI-H226
MOLT-4 = test system: MOLT-4
OVCAR-3 = test system: OVCAR-3
SK-MEL-5 = test system: SK-MEL-5
NCI-H460 = test system: NCI-H460
UO-31 = test system: UO-31
SK-MEL-28 = test system: SK-MEL-28
SNB-19 = test system: SNB-19
MDA-MB-435 = test system: MDA-MB-435
PC-3 = test system: PC-3

Measured: GI50

CCc1ccccc1NC(=O)C1=C(C)NC(C)=C(C(=O)Nc2ccccc2CC)C1c1ccc2c(c1)OCO2
inactive: ACHN 22.8 µM | COLO 205 29 µM | KM12 19.2 µM | CAKI-1 25.2 µM | OVCAR-4 23.2 µM | SNB-75 23.7 µM | SF-539 16.8 µM | HL-60 16.9 µM | UACC-257 30.9 µM | RXF 393 20 µM | NCI-H226 24.3 µM | MOLT-4 15.4 µM | OVCAR-3 22.5 µM | SK-MEL-5 23.2 µM | NCI-H460 34.1 µM | UO-31 18.5 µM | SK-MEL-28 32.6 µM | SNB-19 49.3 µM

CCc1cccc(C(C)CC)c1NC(=O)CC1C(=O)Nc2ccccc2[S+]1[O-] (stereo not drawn)
inactive: ACHN 44.2 µM | CAKI-1 26.4 µM | OVCAR-4 18.3 µM | SNB-75 22.4 µM | SF-539 23 µM | HL-60 49.4 µM | UACC-257 > 100 µM | RXF 393 13.9 µM | NCI-H226 > 100 µM | MOLT-4 14.9 µM | OVCAR-3 50.7 µM | SK-MEL-5 27.2 µM | NCI-H460 29.4 µM | UO-31 > 100 µM | SK-MEL-28 26.1 µM | SNB-19 28.5 µM

CC(=O)OC1(C#N)CC2OC1C1NC21 (stereo not drawn)
inactive: ACHN > 100 µM | COLO 205 > 100 µM | CAKI-1 > 100 µM | OVCAR-4 > 100 µM | SNB-75 > 100 µM | SF-539 > 100 µM | HL-60 > 100 µM | RXF 393 > 100 µM | NCI-H226 > 100 µM | MOLT-4 > 100 µM | SK-MEL-5 > 100 µM | NCI-H460 > 100 µM | UO-31 > 100 µM | SK-MEL-28 > 100 µM | SNB-19 > 100 µM

COC[C@@H](/N=C/N1CCc2cc(OC)c(OC)cc2[C@@H]1C)C(C)(C)C
inactive: ACHN > 100 µM | COLO 205 > 100 µM | KM12 > 100 µM | CAKI-1 > 100 µM | OVCAR-4 > 100 µM | SNB-75 > 100 µM | SF-539 > 100 µM | HL-60 > 100 µM | UACC-257 > 100 µM | RXF 393 > 100 µM | NCI-H226 > 100 µM | MOLT-4 > 100 µM | OVCAR-3 > 100 µM | SK-MEL-5 > 100 µM | NCI-H460 > 100 µM | UO-31 > 100 µM | SK-MEL-28 > 100 µM | SNB-19 > 100 µM

O=C1NC(=O)C2C1N(Cc1ccccc1)C(=O)N2Cc1ccccc1 (stereo not drawn)
inactive: ACHN > 100 µM | COLO 205 > 100 µM | KM12 > 100 µM | CAKI-1 > 100 µM | OVCAR-4 > 100 µM | SNB-75 > 100 µM | SF-539 > 100 µM | HL-60 > 100 µM | UACC-257 > 100 µM | RXF 393 > 100 µM | NCI-H226 > 100 µM | MOLT-4 > 100 µM | OVCAR-3 > 100 µM | SK-MEL-5 > 100 µM | NCI-H460 > 100 µM | UO-31 > 100 µM | SK-MEL-28 > 100 µM | SNB-19 > 100 µM

Cc1cc(C)c2ccc(N3CCNCC3)nc2n1
inactive: ACHN > 100 µM | COLO 205 64.6 µM | KM12 > 100 µM | CAKI-1 > 100 µM | OVCAR-4 > 100 µM | SNB-75 > 100 µM | SF-539 > 100 µM | HL-60 55.7 µM | UACC-257 > 100 µM | MDA-MB-435 > 100 µM | PC-3 > 100 µM | NCI-H226 > 100 µM | MOLT-4 > 100 µM | OVCAR-3 > 100 µM | NCI-H460 > 100 µM | UO-31 41.7 µM | SK-MEL-28 > 100 µM | SNB-19 > 100 µM

O=C(NC1CCC[C@H]1OC(=O)c1ccccc1)c1ccccc1 (stereo partly drawn)
inactive: ACHN > 10 µM | KM12 69.8 µM | CAKI-1 85.7 µM | OVCAR-4 30.8 µM | SNB-75 10.7 µM | SF-539 > 100 µM | HL-60 32.2 µM | UACC-257 > 100 µM | RXF 393 > 100 µM | NCI-H226 13.7 µM | MOLT-4 30.1 µM | OVCAR-3 16.2 µM | SK-MEL-5 37.2 µM | NCI-H460 > 100 µM | UO-31 16.1 µM | SK-MEL-28 > 100 µM | SNB-19 > 100 µM

Cc1ccc(C)c(NC(=O)c2cccc([N+](=O)[O-])c2O)c1
active: RXF 393 0.871 µM
inactive: ACHN 15.1 µM | COLO 205 17.3 µM | KM12 23.7 µM | CAKI-1 30.8 µM | OVCAR-4 13.2 µM | SNB-75 20.4 µM | SF-539 32.3 µM | HL-60 > 100 µM | UACC-257 16.1 µM | NCI-H226 16.6 µM | MOLT-4 20.3 µM | OVCAR-3 27.1 µM | SK-MEL-5 5.9 µM | NCI-H460 20.9 µM | UO-31 16.5 µM | SK-MEL-28 27.1 µM | SNB-19 34.4 µM
